Measured values as given in US8314140B2, “4-hydroxythiobenzamide derivatives of drugs” (Antibe Therapeutics Inc., priority 2006, dated 2012).

How the values were obtained:
visceral pain perception = assay: Rat model of visceral pain perception (colorectal distension, AWR score); type: in vivo; conditions: 0.8 mL colorectal distention; for pain perception score: 100 mg/kg i.p., FIG. 3, FIG. 4
Experimental: A rat model of visceral pain perception, a pre-clinical model of irritable bowel syndrome, was used in the following example. Rats (male, Wistar, 200-250 g, obtained from Charles River, Monza, Italy), were housed in plastic cages and maintained under controlled conditions with 12-hours light/dark cycle with lights on at 7.00 AM. Tap water and standard laboratory chow were freely available. Before experiments, rats were individually trained by spending 2-3 hours per day in a plexiglass cage for 2-3 days. It allowed them to adjust to a movement-restriction environment. Food was withheld for 12 hours before colorectal distension (CRD) recording were performed. Experiments were performed in awake rats and were conducted in a blind manner in that the observer was not aware of the identity of drug administered to each animal.
In the testing day, rats were sedated with ether inhalation and a 2 cm long latex balloon was inserted intrarectally 2 cm from the anal verge and fixed at the base of the tail. The balloon was connected via a double-barreled cannula to a pressure transducer to continuously monitoring the rectal pressure by a computer (PowerLab PC, A.D. Instruments, Milford, Mass., USA) and to a syringe for inflation/deflation of the balloon. The rats were then housed in a small cage (20×8×8 cm) on an elevated Plexiglas™ platform and allowed to wake up and adapt for 1 hour. After recovery from sedation, animals underwent the CRD procedure and behavioral responses were tested. The night before the experiments, the balloons were inflated and left overnight so the latex stretched and the balloons became compliant.
CRD of 20 seconds, performed every 5 minutes, was applied in increment of 0.4 ml starting from 0.4 ml up to 1.6 ml water. To achieve an accurate measurement of the colonic parameters and perception, the distensions were repeated twice for each intensity and data for each animal were averaged for analysis. Each animal underwent a double set of CRD. Twenty minutes after the first sequence of CRD (0.4 mL-1.6 ml water), drugs were administered intraperitoneally (i.p.) and a second set of CRD was performed. Behavioral responses during the first and the second set of CRD were assessed and compared.
Behavioral response to CRD was assessed by measuring the abdominal withdrawal reflex (AWR) using a semiquantitative score (1).
A rat model of visceral pain perception as described above was used to compare pain perception scores for 5-amino-2-(4-thiocarbamoyl-phenoxycarbonyloxy)-benzoic acid (Compound XXVII) with or without glibenclamide, an inhibitor of ATP-sensitive K^+ (KATP) channels.
Experiments were carried out as described in Example 13, except that groups of 5 rats each were treated with vehicle, trimebutine maleate (10 mg/kg), or with equimolar doses of trimebutine thiocarbamoylbenzoate (Compound III) or thiocarbamolybenzoate alone.

[1] = H2S generation in buffer and liver homogenate (Example 15); type: in vitro ADME, rat; conditions: for H2S generation in buffer: buffer pH 7.4, 37° C.
Experimental: (Compound XXVII) was tested for H2S generation under three different conditions. Concentrations of H2S that were generated within 1 hour from 1 mM concentrations of L-cysteine, 4-HBT (4-hydroxythiobenzamide) and 5-amino-2-(4-thiocarbamoyl-phenoxycarbonyloxy)-benzoic acid were measured. H2S release was tested under three conditions: (i) when the compound was in buffer, (ii) when the compound was in a liver homogenate, and (iii) when the compound was in the liver homogenate together with an inhibitor of cystathionine γ-lyase (PAG=DL-propargylglycine; 2 mM). Results are shown in FIG. 6. *p<0.05 compared to the release from the vehicle group. ^ψp>0.05 versus the corresponding ‘homogenate’ group. The enzymatic capacity for H2S production was determined using the same reactor as described previously (Khan et al. (1980) Microchem J 25: 388-395, incorporated herein by reference). Two ml of an assay reaction mixture was introduced in the reactor. The mixture contained 1 mM L-cysteine (or compound), 2 mM pyridoxal 5′-phosphate, 100 mM potassium phosphate buffer (pH=7.4). A constant stream of nitrogen was passed through the mixture via gas-inlet capillary. Reactions were initiated by transferring the tubes from ice bath to a 37° C. water bath. The stream of nitrogen carried the sulfide acid in the second reactor containing 4 ml of sulfide anti-oxidant buffer (SAOB) solution, consisting of 2M KOH, 1M salicylic acid and 0.22M ascorbic acid at pH 12.8[5]. After incubating at 37° C. for 90 minutes, 1 ml of 10% trichloroacetic acid solution was added to mixture to stop the reaction. The remainder H2S in the mixture was carried out via nitrogen stream by other 60 minutes of incubation at 37° C. The concentration of sulfide in SAOB solution was measured with a sulfide sensitive electrode (Model 9616 S^2−/Ag^+ electrode, Orion Research, Beverly, Mass., USA). For studies in which the test compounds were incubated in liver homogenate, 100-150 mg of isolated rat livers were homogenized in 1 ml of ice-cold T-PER protein extractor. The homogenates were added to the reaction mixture at a concentration of 10% (wt/vol). DL-propargylglycine 2 mM was incubated with liver homogenates for 5 min at 37° C. prior the enzyme reaction. Khan, S. U. Morris, G. F. and Hidiroglou, M. (1980) Rapid estimation of sulfide in rumen and blood with a sulfide-specific ion electrode. Microchem J. 25:388-395, incorporated herein by reference.

COX-1 and/or COX-2 = assay: Gastric prostaglandin E2 synthesis; type: in vivo, rat; conditions: oral, 3 h; diclofenac 20 mg/kg or equimolar doses; FIG. 9
Experimental: Briefly, the tissue samples were minced with scissors for 30 min, then placed in 1 mL of sodium phosphate buffer (pH 7.4) and placed in a shaking water bath (37° C.) for 20 min.

gastric ulcers = assay: Healing of acetic acid-induced gastric ulcers; type: in vivo, rat; conditions: oral twice-daily for 4 days; 30 μmol/kg (naproxen, Compound XX 60 μmol/kg); FIG. 17
Experimental: Gastric ulcers were induced via serosal application of acetic acid, as described by Elliott et al., A nitric oxide-releasing nonsteroidal anti-inflammatory drug accelerates gastric ulcer healing in rats. […] After 4 days of such treatment, the rats were euthanized and the stomach was excised and photographed. The area (in mm^2) of the ulcer was determined planimetrically by an individual unaware of the treatments given to the rats.

Compound | pain perception score (visceral pain perception) | pain perception score after glibenclamide pretreatment (visceral pain perception; glibenclamide 10 mg/kg i.p. 30 min before, FIG. 3) | H2S generation in liver homogenate ([1]; 1 mM compound, 10% rat liver homogenate, FIG. 6) | H2S generation in buffer ([1]; 1 mM compound, FIG. 6) | H2S generation in liver homogenate with PAG ([1]; 1 mM compound, liver homogenate plus DL-propargylglycine 2 mM, FIG. 6) | concentration of H2S produced ([1]; 1 mM of the compound) | gastric PGE2 synthesis (COX-1 and/or COX-2) | gastric ulcer healing (ulcer surface area) (gastric ulcers)
5-amino-2-(4-thiocarbamoyl-phenoxycarbonyloxy)-benzoic acid [Compound XXVII] | significantly reduced the pain perception | reversed by pretreatment with glibenclamide | greater when in the presence of tissue | releases H2S spontaneously | lack of effect | 10 to 20 µM |  | 
NC(=S)c1ccc(O)cc1 [4-hydroxythiobenzamide] | did not have a significant effect on pain perception |  |  | did not release significant H2S |  |  | did not reduce gastric PGE2 synthesis | did not significantly affect the healing of gastric ulcers
